In BindingDB's records for doi:10.1021/jm200999f (Corning, 2011):

Target: G-protein coupled receptor 35 (Homo sapiens, UniProt Q9HC97)
Experiment: Antagonist activity at GPR35 in human HT-29 cells assessed as inhibition of zaprinast-induced DMR by dynamic mass redistribution assay

G-protein coupled receptor 35, sequence (Q9HC97 whole entry): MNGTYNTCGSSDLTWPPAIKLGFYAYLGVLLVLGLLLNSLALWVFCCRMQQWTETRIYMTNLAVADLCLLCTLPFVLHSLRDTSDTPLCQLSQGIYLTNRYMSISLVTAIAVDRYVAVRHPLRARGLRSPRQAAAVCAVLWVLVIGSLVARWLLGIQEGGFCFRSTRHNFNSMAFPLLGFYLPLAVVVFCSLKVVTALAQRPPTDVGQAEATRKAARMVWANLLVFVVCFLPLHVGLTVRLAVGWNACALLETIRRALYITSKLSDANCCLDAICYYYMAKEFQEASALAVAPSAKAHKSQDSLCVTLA

IC50: 10.5 µM
Structure (SMILES): CCCOc1ccccc1-c1nc2nn[nH]c2c(=O)[nH]1 [5-(2-propoxyphenyl)-2H,3H,7H-[1,2,3]triazolo[4,5-d]pyrimidin-7-one]
